Results: ChEMBL document CHEMBL1130636, “PDE4 inhibitors: new xanthine analogues” (Bioorg Med Chem Lett, 1998)
Active and inactive are the calls of the source. No cut-off for these calls is given here.

Tests used:
Phosphodiesterase 4 [1] = target: T1, Phosphodiesterase 4 (Homo sapiens, UniProt P27815+Q08499+Q07343+Q08493); experiment: Inhibition of PDE4; format: protein assay
Phosphodiesterase 4 [2] = target: T1, Phosphodiesterase 4; experiment: Inhibition of rolipram binding; format: protein assay
Phosphodiesterase 4 [3] = target: T1, Phosphodiesterase 4; experiment: Relative inhibition of PDE4 activity and rolipram binding to PDE4; format: protein assay
Phosphodiesterase 4 [4] = target: T1, Phosphodiesterase 4; experiment: Inhibition of rolipram binding to PDE4; format: protein assay
Cavia porcellus [5] = experiment: Inhibition of eosinophil recruitment in guinea pig lung asthma model at 10 mg/kg; format: functional
Mustela putorius furo = experiment: Emetic effect in ferrets on oral administration at 10 mg/kg (No effect); format: functional, organism-based; parameters: dose 10 mg/kg
Cavia porcellus [6] = experiment: Inhibition of eosinophil recruitment in guinea pig lung asthma model at 30 mg/kg oral dose; format: functional
Cavia porcellus [7] = experiment: Inhibition of eosinophil recruitment in guinea pig lung asthma model at 10 mg/kg oral dose; format: functional

Row | SMILES | IC50 (Phosphodiesterase 4 [1]) [µM] | IC50 (Phosphodiesterase 4 [2]) [µM] | Ratio (Phosphodiesterase 4 [3]) | other results
1 | C[S+]([O-])c1cccc(-n2c(=O)n(Cc3ccccc3)c(=O)c3[nH]cnc32)c1 (centres undefined) | 56 | 1.6 | 35 | –
2 | O=c1c2[nH]cnc2n(-c2cccc(Cl)c2)c(=O)n1Cc1ccccc1 | 6.55 | – | 156 | IC50 (Phosphodiesterase 4 [4]): 0.042 µM
3 | COc1ccc(C2CNC(=O)C2)cc1OC1CCCC1 (centres undefined) [ROLIPRAM] | – | – | – | inhibition in vivo at 10 mg/kg (Cavia porcellus [5]): 48%
4 | COc1cccc(-n2c(=O)n(Cc3ccccc3)c(=O)c3[nH]cnc32)c1 | 6.01 | 0.017 | 353 | –
5 | COC(=O)c1cccc(-n2c(=O)n(Cc3ccccc3)c(=O)c3[nH]cnc32)c1 | 4.08 | 0.009 | 453 | –
6 | Nc1cccc(-n2c(=O)n(Cc3ccccc3)c(=O)c3[nH]cnc32)c1 | 11 | 0.32 | 34 | –
7 | Cc1ccccc1-n1c(=O)n(Cc2cccs2)c(=O)c2[nH]cnc21 | 4.2 | 1.02 | 4.1 | Activity (Mustela putorius furo): inactive; inhibition in vivo at 30 mg/kg (Cavia porcellus [6]): 70%; inhibition in vivo at 10 mg/kg (Cavia porcellus [7]): 56%
8 | O=C(O)c1cccc(-n2c(=O)n(Cc3ccccc3)c(=O)c3[nH]cnc32)c1 | 110 | – | – | –
9 | Cc1ccccc1-n1c(=O)n(Cc2ccco2)c(=O)c2[nH]cnc21 | 11.95 | 1.1 | 10.9 | –

Now from value to compound, other results behind:

Row | IC50 (Phosphodiesterase 4 [1]) [µM] | IC50 (Phosphodiesterase 4 [2]) [µM] | Ratio (Phosphodiesterase 4 [3]) | SMILES | other results
10 | 100 | – | – | C[S+]([O-])c1ccccc1-n1c(=O)n(Cc2ccccc2)c(=O)c2[nH]cnc21 (centres undefined) | –
11 | 4.8 | 0.08 | 60 | O=c1c2[nH]cnc2n(-c2ccccc2)c(=O)n1Cc1ccccc1 | –
12 | 20 | – | – | O=c1c2[nH]cnc2n(-c2ccccc2C(F)(F)F)c(=O)n1Cc1ccccc1 | –
13 | > 20 | – | – | CC(C)(C)c1ccccc1-n1c(=O)n(Cc2ccccc2)c(=O)c2[nH]cnc21 | –
14 | 2.4 | 0.22 | 10.9 | O=c1c2[nH]cnc2n(-c2ccccc2F)c(=O)n1Cc1ccccc1 | –
15 | 7.97 | 0.67 | 11.9 | Cc1ccccc1-n1c(=O)n(Cc2ccccc2)c(=O)c2[nH]cnc21 | –
16 | 20 | – | – | CSc1ccccc1-n1c(=O)n(Cc2ccccc2)c(=O)c2[nH]cnc21 | –
